Measured values from the Kinase Knowledgebase extract (Sharma et al. 2016).

The compounds below were run against CDK2 (human) (UniProt P24941) (assay: Enzyme Assay).

Ki, < 1000 nM:
O=c1[nH][nH]c2cc(Nc3nc(Nc4cc(C5CC5)[nH]n4)c4ccccc4n3)ccc12
Cn1cnc(NCCONc2ccc3c(=O)[nH][nH]c3c2)c1
Cc1cnc(NCCC(=O)Nc2ccc3c(=O)[nH][nH]c3c2)s1
O=c1[nH][nH]c2ccc(-c3cc(Nc4n[nH]c5c(F)cc(F)cc45)c4ccccc4n3)c(C(F)(F)F)c12
Cc1cc(Nc2cc(-c3c(C)cccc3C)nc(Oc3ccc4c(=O)[nH][nH]c4c3)n2)n[nH]1
O=C(CCNc1cc(C2CC2)[nH]n1)Oc1ccc2c(=O)[nH][nH]c2c1
O=c1[nH][nH]c2cc(SCC3CCCC3Nc3cc(C4CC4)[nH]n3)ccc12 (stereo not drawn)
O=c1[nH][nH]c2cc(SCC3CCCC3Nc3nccnn3)ccc12 (stereo not drawn)
Cc1cnc(CC2CCCC2CCc2ccc3c(=O)[nH][nH]c3c2)s1 (stereo not drawn)
O=c1[nH][nH]c2cc(SCC3CCCC3Nc3ccccn3)ccc12 (stereo not drawn)
O=c1[nH][nH]c2cc(OC(CCNc3ccccn3)Cc3ccccc3)ccc12 (stereo not drawn)
Cc1cc(Nc2nc(Nc3ccc4c(=O)[nH][nH]c4c3)nc3ccccc23)n[nH]1
O=c1[nH][nH]c2cc(Cl)c(-c3cc(N4CCCCC4)nc(Nc4n[nH]c5ccccc45)n3)cc12
Cc1cc(Nc2ccnc(Oc3ccc4c(=O)[nH][nH]c4c3)c2)n[nH]1
O=C1CCc2c(nc(-c3ccc4[nH][nH]c(=O)c4c3)nc2Nc2n[nH]c3ccccc23)C1
Cc1cc(Nc2cc(-c3cc4c(=O)[nH][nH]c4cc3C(F)(F)F)nc3cnccc23)n[nH]1
CN(C)CCOCc1cc(Nc2n[nH]c3ccccc23)nc(Sc2ccc3c(=O)[nH][nH]c3c2)n1
Cc1cnc(NCCCSc2ccc3c(=O)[nH][nH]c3c2)s1
O=c1[nH][nH]c2cc(OC3CCC(Nc4nccnn4)C3)ccc12 (stereo not drawn)
O=c1[nH][nH]c2cc(Nc3cccc(Nc4nccnn4)c3)ccc12
Cc1cnc(NC2COCC(Nc3ccc4c(=O)[nH][nH]c4c3)C2)s1 (stereo not drawn)
Cc1cc(Nc2nc(CSc3ccc4[nH][nH]c(=O)c4c3)nc3ccccc23)n[nH]1
Cc1cc(Nc2nc(-c3cc4c(=O)[nH][nH]c4cc3-c3ccccc3)nc3ccccc23)n[nH]1
O=C(CCOc1ccc2c(=O)[nH][nH]c2c1)Nc1cc(C2CC2)[nH]n1
O=c1[nH][nH]c2cc(NC3CCC(Nc4nccnn4)C3)ccc12 (stereo not drawn)
O=c1[nH][nH]c2cc(CCCC(Nc3nccnn3)c3ccccc3)ccc12 (stereo not drawn)
Cc1cnc(NC(=O)CC(=O)Cc2ccc3c(=O)[nH][nH]c3c2)s1
Cc1cnc(NCCC(Cc2ccccc2)Cc2ccc3c(=O)[nH][nH]c3c2)s1 (stereo not drawn)
O=c1[nH][nH]c2cc(CCCONc3cc(C4CC4)[nH]n3)ccc12
O=c1[nH][nH]c2cc(Nc3cc4ccccc4c(Nc4n[nH]c5ccccc45)n3)ccc12
O=c1[nH][nH]c2cc(NCCC(Nc3cc(C4CC4)[nH]n3)c3ccccc3)ccc12 (stereo not drawn)
O=c1[nH][nH]c2ccc(-c3nc(Nc4n[nH]c5cc(=O)n(-c6ccccc6)nc45)c4ccccc4n3)c(C(F)(F)F)c12
O=c1[nH][nH]c2cc(SC3COCC(Nc4nccnn4)C3)ccc12 (stereo not drawn)
Cn1cnc(NC2COCC(Sc3ccc4c(=O)[nH][nH]c4c3)C2)c1 (stereo not drawn)
O=c1[nH][nH]c2cc(C(F)(F)F)c(-c3cc(N4CCCCC4)cc(Nc4n[nH]c5ccccc45)n3)cc12
O=c1[nH][nH]c2cc(Oc3cccc(Nc4cc(C5CC5)[nH]n4)n3)ccc12
Cc1nc(Oc2ccc3c(=O)[nH][nH]c3c2)nc(Nc2cc(C3CC3)[nH]n2)c1C
Cc1cc(Nc2cccc(NCc3ccc4c(=O)[nH][nH]c4c3)n2)n[nH]1
CC(C)(c1ccc2c(=O)[nH][nH]c2c1)C1CCC(Nc2ccccn2)C1 (stereo not drawn)
COc1cccc2c(Nc3cc(C4CC4)[nH]n3)nc(Sc3ccc4c(=O)[nH][nH]c4c3)nc12
Cc1cc(Nc2nc(Nc3ccc4c(=O)[nH][nH]c4c3)nc3c2CN(Cc2ccccc2)CC3)n[nH]1
O=c1[nH][nH]c2ccc(-c3nc4c(c(Nc5n[nH]c(-c6cccnc6)n5)n3)CCCC4)c(C(F)(F)F)c12
O=c1[nH][nH]c2ccc(-c3nc4c(c(Nc5n[nH]c6c(F)cccc56)n3)CCCCCC4)c(C(F)(F)F)c12
Cc1cc(Nc2cc(N3CCCC3)nc(SCc3ccc4c(=O)[nH][nH]c4c3)n2)n[nH]1
Cn1cnc(NC2CCCC(Oc3ccc4c(=O)[nH][nH]c4c3)C2)c1 (stereo not drawn)
CN(C)CCNC(=O)c1cc(Nc2cc(C3CC3)[nH]n2)nc(Sc2ccc3c(=O)[nH][nH]c3c2)n1
O=c1[nH][nH]c2cc(SCCCNc3nccnn3)ccc12
CC(=O)Nc1cccc(-c2cc(Nc3cc(C)[nH]n3)nc(Sc3ccc4c(=O)[nH][nH]c4c3)n2)c1
Cn1cnc(NC(=O)CCSc2ccc3c(=O)[nH][nH]c3c2)c1
O=c1[nH][nH]c2ccc(C3COCC(Nc4nccnn4)C3)cc12 (stereo not drawn)
Cn1cnc(NC2CCC(c3ccc4[nH][nH]c(=O)c4c3)C2)c1 (stereo not drawn)
O=c1[nH][nH]c2cc(COC3CCCC3Nc3cc(C4CC4)[nH]n3)ccc12 (stereo not drawn)
Cc1cc(Nc2cnnc(-c3ccc4[nH][nH]c(=O)c4c3)c2)n[nH]1
Cn1cnc(NC2CCCC2COc2ccc3c(=O)[nH][nH]c3c2)c1 (stereo not drawn)
Cc1cc(Nc2cc(COc3ccc4c(=O)[nH][nH]c4c3)nc3c2CCCC3)n[nH]1
O=c1[nH][nH]c2cc([C@@H]3C[C@H]3c3nc(Nc4n[nH]c5ccccc45)c4ccccc4n3)ccc12
O=C(CCNc1ccccn1)Nc1ccc2c(=O)[nH][nH]c2c1
O=c1[nH][nH]c2cc(Nc3nc(Nc4cc(C5CC5)[nH]n4)ccc3[N+](=O)[O-])ccc12
O=c1[nH][nH]c2cc(OC3COCC(Nc4ccccn4)C3)ccc12 (stereo not drawn)
CC(C)(C)OC(=O)n1[nH]c(=O)c2cc(Nc3nc(Nc4cc(C5CC5)[nH]n4)c4ccccc4n3)ccc21
Cc1cc(Nc2cc(C)[nH]n2)nc(C(C)(C)c2ccc3c(=O)[nH][nH]c3c2)n1
Cn1cnc(NC(=O)CC(=O)Nc2ccc3c(=O)[nH][nH]c3c2)c1
Nc1cncc(-c2nc(Nc3n[nH]c4ccccc34)nc(-c3cc4c(=O)[nH][nH]c4cc3C(F)(F)F)n2)c1
O=c1[nH][nH]c2cc(SC3CCC(Nc4nccnn4)C3)ccc12 (stereo not drawn)
O=c1[nH][nH]c2cc(Nc3nc(Nc4cc(C5CC5)[nH]n4)c4cc(Cl)ccc4n3)ccc12
O=C(CC(=O)Nc1cc(C2CC2)[nH]n1)Nc1ccc2c(=O)[nH][nH]c2c1
O=c1[nH][nH]c2cc(NC3CCCC(Nc4cc(C5CC5)[nH]n4)C3)ccc12 (stereo not drawn)
CC(=O)Nc1cccc(-c2cc(Nc3cc(C)[nH]n3)nc(Oc3ccc4c(=O)[nH][nH]c4c3)n2)c1
Cn1cnc(NCCC(Cc2ccccc2)Cc2ccc3c(=O)[nH][nH]c3c2)c1 (stereo not drawn)
COCc1cc(Nc2n[nH]c3ccccc23)nc(-c2ccc3[nH][nH]c(=O)c3c2)n1
COC(=O)c1cc(Nc2cc(C)[nH]n2)nc(Sc2ccc3c(=O)[nH][nH]c3c2)n1
O=c1[nH][nH]c2cc(Nc3nc(Nc4cc(C5CC5)[nH]n4)nc(-c4ccccc4)n3)ccc12
Cc1cc(Nc2cc(-c3ccccc3)[nH]n2)nc(COc2ccc3c(=O)[nH][nH]c3c2)n1
Cc1cc(Nc2cc(N3CCN(C)CC3)nc(Sc3ccc4c(=O)[nH][nH]c4c3)n2)n[nH]1
Cc1cc(Nc2nc(-c3ccc4[nH][nH]c(=O)c4c3)nc3cc(-n4cccc4)ccc23)n[nH]1
Cn1cnc(NCCC(=O)Oc2ccc3c(=O)[nH][nH]c3c2)c1
Cn1cnc(NC(=O)CC(=O)Cc2ccc3c(=O)[nH][nH]c3c2)c1
O=c1[nH][nH]c2cc(NC3COCC(Nc4nccnn4)C3)ccc12 (stereo not drawn)
Cc1cc(Nc2cc(N3CCN(C)CC3)nc(Oc3ccc4c(=O)[nH][nH]c4c3)n2)n[nH]1
O=c1[nH][nH]c2cc(Nc3nc(Nc4cc(C5CC5)[nH]n4)c4cc(-c5ccccc5Cl)ccc4n3)ccc12
Cc1cc(Nc2ccnc(Cc3ccc4c(=O)[nH][nH]c4c3)c2)n[nH]1
O=c1[nH][nH]c2cc(CC3COCC(Nc4cc(C5CC5)[nH]n4)C3)ccc12 (stereo not drawn)
O=c1[nH][nH]c2cc(CCC3COCC(Nc4ccccn4)C3)ccc12 (stereo not drawn)
CCCCc1cc(Nc2nc(-c3ccc4[nH][nH]c(=O)c4c3)nc(C3CC3)n2)n[nH]1
O=c1[nH][nH]c2cc(NC3COCC(Nc4ccccn4)C3)ccc12 (stereo not drawn)
O=c1[nH][nH]c2ccc(-c3cc(Nc4n[nH]c5ccccc45)nnc3NCCN3CCCCC3)c(C(F)(F)F)c12
Cc1cnc(NC2CCCC2COc2ccc3c(=O)[nH][nH]c3c2)s1 (stereo not drawn)
O=c1[nH][nH]c2cc(NCC3CCCC3Nc3nccnn3)ccc12 (stereo not drawn)
